US4766122A, “Cyanoamidine compounds and derivatives thereof” (Smith Kline & French Laboratories Limited, priority 1985, dated 1988)

What was measured:
[1] = test system: left ventricular dp/dt max (left ventricular contractility); experiment: Cardiac stimulant activity in vivo: left ventricular dp/dt max in anaesthetised cats; set-up: species or system cat; details: anaesthetised cats pretreated with pempidine and propranolol, intravenous
PDE (Peak III) [2] = experiment: Inhibition of PDE (Peak III) from cat heart; assay type: biochemical; details: read-out: IC50 (50% inhibition of PDE (Peak III) activity); 1 μM cyclic AMP, 37°, pH 7.5
Method: (§1) There were three major peaks which had the following characteristics:
(§2) The enzyme was assayed by incubation at 37° for 4-30 min in 50 mM Tris, 5 mM MgCl2, pH 7.5 with [3-H]cyclic nucleotide (4×10^5 disintegrations min^-1) and [14-C]nucleotide 5' monophosphate (3×10^3 disintegrations min^-1). […] The reaction mixture was diluted with 0.5 ml 100 mM HEPES (N-2-Hydroxyethyl-piperazine-N'-2-ethanesulfonic acid), 100 mM NaCl, pH 8.5, and applied to the column. […] The recovery of product as judged by [14-C]recovery was approximately 80%. All assays were linear with time of incubation and concentration of enzyme over the range used in these experiments.

[3] = test system: guinea pig right ventricular strips; experiment: Cardiac stimulant activity in vitro: increase in force of contraction of electrically stimulated ventricular strips; details: Cavia porcellus, read-out: EC50 (50% increase in the force of contraction of the ventricular strips); 37° C., stimulated at 1.0 Hz, cumulative concentration response
Method: The compounds of formula (I) and their pharmaceutically acceptable salts are tested for cardiac stimulant activity following a procedure based on that of S.C. Verma and J. H. McNeill (J. Pharm & Exp. Therapeutics, 200, 352-362 (1977)). Guinea pigs (500-700 g) of either sex are sacrificed and the hearts are quickly removed and transferred to a dissecting dish containing oxygenated bathing fluid. While in the bathing medium, the right ventricle is cut into two strips. The strips are each suspended in a 50 ml bath containing Krebs Henseleit solution at 37° C., and the bath is bubbled with 95% oxygen and 5% carbon dioxide. The ventricular strips are electrically stimulated at a frequency of 1.0 Hz, at double the threshold voltage. A resting tension of 1.0 g is applied to the strips and the tension is kept constant by readjustment during an equilibration period of 60 minutes. The bathing fluid is frequently changed during this period. When a steady base line is obtained, a compound under test is added to the bathing fluid and a cumulative concentration response curve is plotted.

PDE (Peak III) [4] = details: eluted at 0.5 M Na acetate
Method: as §1, §2

PDE (Peak II) = details: eluted at 0.3 M Na acetate
Method: as §1, §2

PDE (Peak I) = experiment: Substrate kinetics of PDE (Peak I) from cat heart; assay type: biochemical

Compound	duration of activity [1]	IC50 (PDE (Peak III) [2]) [nM]	EC50 [3] [nM]	ED50 ([1]; Felis catus, read-out: ED50 (dose to increase left ventricular dp/dt max by 50%)) [µmol/kg]	Km (PDE (Peak III) [4]) [µM]	Relative Vmax (PDE (Peak III) [4])	Km (PDE (Peak II)) [µM]	Relative Vmax (PDE (Peak II))	Relative Vmax (PDE (Peak I); 50 μg/ml calmodulin added)	Relative Vmax (PDE (Peak I); without 50 μg/ml calmodulin)
Nc1cc(-c2ccncc2)c[nH]c1=O [Amrinone]	short duration of activity	–	–	–	–	–	–	–	–	–
CCC(=NC#N)Nc1ccc(C2=NNC(=O)CC2C)cc1 (centres unmarked) [Example 1, 6-[4-(N^2 -Cyanopropanimidamido)phenyl]-5-methyl-4,5-dihydro-3(2H)-pyridazinone]	long duration of activity	80	65	0.02	–	–	–	–	–	–
Nc1nc2c(ncn2[C@@H]2O[C@@H]3COP(=O)(O)O[C@H]3[C@H]2O)c(=O)[nH]1 [cyclic GMP]	–	–	–	–	2.9	0.4	28	0.2	7.2	1.1
